Results from patent US20160130278A1 (TAISHO PHARMACEUTICAL CO., LTD, priority 2013, published 2016).

Biological target: T1, human type 1 glycine transporter (GlyT1) (Homo sapiens, UniProt P48067)
T1 construct: T98G cells (glioma cells) expressing human type 1 glycine transporter (GlyT1) were used
T1 sequence (P48067 1-706): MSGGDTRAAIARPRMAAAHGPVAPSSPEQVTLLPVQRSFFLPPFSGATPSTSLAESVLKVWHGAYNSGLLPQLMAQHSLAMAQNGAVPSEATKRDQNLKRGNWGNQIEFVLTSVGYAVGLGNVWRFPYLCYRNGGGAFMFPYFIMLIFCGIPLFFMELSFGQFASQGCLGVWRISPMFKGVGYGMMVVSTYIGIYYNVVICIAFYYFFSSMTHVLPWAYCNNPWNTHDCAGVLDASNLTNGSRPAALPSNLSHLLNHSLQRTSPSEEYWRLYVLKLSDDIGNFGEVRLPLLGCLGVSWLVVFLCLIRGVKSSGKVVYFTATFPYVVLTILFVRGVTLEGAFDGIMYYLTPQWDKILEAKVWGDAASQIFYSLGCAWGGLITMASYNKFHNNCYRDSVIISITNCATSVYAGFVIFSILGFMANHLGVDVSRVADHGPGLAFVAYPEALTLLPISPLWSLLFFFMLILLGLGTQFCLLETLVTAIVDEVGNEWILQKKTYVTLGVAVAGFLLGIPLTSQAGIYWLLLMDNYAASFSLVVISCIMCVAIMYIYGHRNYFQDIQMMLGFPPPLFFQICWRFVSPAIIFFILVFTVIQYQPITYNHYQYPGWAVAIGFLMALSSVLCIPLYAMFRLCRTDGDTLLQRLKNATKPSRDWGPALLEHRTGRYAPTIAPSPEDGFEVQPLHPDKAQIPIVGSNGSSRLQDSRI
Test: Glycine uptake inhibition experiment ([3H]glycine uptake)
Format: cell-based
Conditions: GlyT1
Outline: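 T98G glioma cells expressing human GlyT1 were pretreated 10 min with compound in HEPES buffer pH 7.4 (0.2% BSA), then incubated with compound plus 250 nM final [3H]glycine for 15 min at room temperature. Intracellular radioactivity was counted after NaOH lysis; 10 μM ALX5407 defined non-specific uptake. IC50 came from 10^−9–10^−5 M curves.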

Compound | IC50 [nM]
O=C(NC(c1cccc(Br)c1)C1(O)CCCCC1)c1nccc(C(F)(F)F)c1Cl (centres unmarked) [Compound 38, N-[(3-bromophenyl)(1-hydroxycyclohexyl)methyl]-3-chloro-4-(trifluoromethyl)pyridine-2-carboxamide] | 60
O=C(NC(c1ccc(F)cc1)C1(O)CCCC1)c1nccc(C(F)(F)F)c1Cl (centres unmarked) [Compound 39, 3-chloro-N-[(4-fluorophenyl)(1-hydroxycyclopentyl)methyl]-4-(trifluoromethyl)pyridine-2-carboxamide] | 1000
O=C(NC(c1cccc(F)c1)C1(O)CCCC1)c1nccc(C(F)(F)F)c1Cl (centres unmarked) [Compound 40, 3-chloro-N-[(3-fluorophenyl)(1-hydroxycyclopentyl)methyl]-4-(trifluoromethyl)pyridine-2-carboxamide] | 110
O=C(NC(c1ccccc1F)C1(O)CCCC1)c1nccc(C(F)(F)F)c1Cl (centres unmarked) [Compound 41, 3-chloro-N-[(2-fluorophenyl)(1-hydroxycyclopentyl)methyl]-4-(trifluoromethyl)pyridine-2-carboxamide] | 180
O=C(NC(c1ccccc1Cl)C1(O)CCCC1)c1nccc(C(F)(F)F)c1Cl (centres unmarked) [Compound 44, 3-chloro-N-[(2-chlorophenyl)(1-hydroxycyclopentyl)methyl]-4-(trifluoromethyl)pyridine-2-carboxamide] | 66
O=C(NC(c1cccc(Cl)c1)C1(O)CCCC1)c1nccc(C(F)(F)F)c1Cl (centres unmarked) [Compound 45, 3-chloro-N-[(3-chlorophenyl)(1-hydroxycyclopentyl)methyl]-4-(trifluoromethyl)pyridine-2-carboxamide] | 90
O=C(NC(c1ccc(Cl)cc1)C1(O)CCCC1)c1nccc(C(F)(F)F)c1Cl (centres unmarked) [Compound 46, 3-chloro-N-[(4-chlorophenyl)(1-hydroxycyclopentyl)methyl]-4-(trifluoromethyl)pyridine-2-carboxamide] | 1700
Cc1ccccc1C(NC(=O)c1nccc(C(F)(F)F)c1Cl)C1(O)CCCC1 (centres unmarked) [Compound 47, 3-chloro-N-[(1-hydroxycyclopentyl)(2-methylphenyl)methyl]-4-(trifluoromethyl)pyridine-2-carboxamide] | 280
Cc1cccc(C(NC(=O)c2nccc(C(F)(F)F)c2Cl)C2(O)CCCC2)c1 (centres unmarked) [Compound 48, 3-chloro-N-[(1-hydroxycyclopentyl)(3-methylphenyl)methyl]-4-(trifluoromethyl)pyridine-2-carboxamide] | 670
Cc1ccc(C(NC(=O)c2nccc(C(F)(F)F)c2Cl)C2(O)CCCC2)cc1 (centres unmarked) [Compound 49, 3-chloro-N-[(1-hydroxycyclopentyl)(4-methylphenyl)methyl]-4-(trifluoromethyl)pyridine-2-carboxamide] | 3800
COc1ccccc1C(NC(=O)c1nccc(C(F)(F)F)c1Cl)C1(O)CCCC1 (centres unmarked) [Compound 50, 3-chloro-N-[(1-hydroxycyclopentyl)(2-methoxyphenyl)methyl]-4-(trifluoromethyl)pyridine-2-carboxamide] | 540
COc1cccc(C(NC(=O)c2nccc(C(F)(F)F)c2Cl)C2(O)CCCC2)c1 (centres unmarked) [Compound 51, 3-chloro-N-[(1-hydroxycyclopentyl)(3-methoxyphenyl)methyl]-4-(trifluoromethyl)pyridine-2-carboxamide] | 370
O=C(NC(c1cccc(F)c1)C1(O)CCC1)c1nccc(C(F)(F)F)c1Cl (centres unmarked) [Compound 62, 3-chloro-N-[(3-fluorophenyl)(1-hydroxycyclobutyl)methyl]-4-(trifluoromethyl)pyridine-2-carboxamide] | 2100
O=C(NC(c1cccc(F)c1)C1(O)CCCCC1)c1nccc(C(F)(F)F)c1Cl (centres unmarked) [Compound 63, 3-chloro-N-[(3-fluorophenyl)(1-hydroxycyclohexyl)methyl]-4-(trifluoromethyl)pyridine-2-carboxamide] | 57
O=C(N[C@@H](c1cccc(Br)c1)C1(O)CCCC1)c1cccc(C(F)(F)F)c1Cl [Compound 64, N-[(S)-(3-bromophenyl)(1-hydroxycyclopentyl)methyl]-2-chloro-3-(trifluoromethyl)benzamide] | 75
O=C(NC(c1cccc(F)c1)C1(O)CCCC1)c1cccc(C(F)(F)F)c1Cl (centres unmarked) [Compound 65, 2-chloro-N-[(3-fluorophenyl)(1-hydroxycyclopentyl)methyl]-3-(trifluoromethyl)benzamide] | 270
O=C(N[C@@H](c1cccc(Br)c1)C1(O)CCCC1)c1nccc(C(F)(F)F)c1-n1cccn1 [Compound 69, N-[(S)-(3-bromophenyl)(1-hydroxycyclopentyl)methyl]-3-(1H-pyrazol-1-yl)-4-(trifluoromethyl)pyridine-2-carboxamide] | 1400
O=C(N[C@@H](c1cccc(Br)c1)C1(O)CCCC1)c1nccc(C(F)(F)F)c1-n1nccn1 [Compound 70, N-[(S)-(3-bromophenyl)(1-hydroxycyclopentyl)methyl]-3-(2H-1,2,3-triazol-2-yl)-4-(trifluoromethyl)pyridine-2-carboxamide] | 1200
O=C(N[C@@H](c1cccc(Br)c1)C1(O)CCCC1)c1nccc(C(F)(F)F)c1-n1ccnn1 [Compound 71, N-[(S)-(3-bromophenyl)(1-hydroxycyclopentyl)methyl]-3-(1H-1,2,3-triazol-1-yl)-4-(trifluoromethyl)pyridine-2-carboxamide] | 5700
CCn1cc(-c2cccc([C@H](NC(=O)c3cccc(C(F)(F)F)c3Cl)C3(O)CCCC3)c2)cn1 [Compound 74, 2-chloro-N-[(S)-[3-(1-ethyl-1H-pyrazol-4-yl)phenyl](1-hydroxycyclopentyl)methyl]-3-(trifluoromethyl)benzamide] | 43
O=C(NC(c1cccc(F)c1)C1(O)CCC(F)(F)CC1)c1nccc(C(F)(F)F)c1Cl (centres unmarked) [Compound 75, 3-chloro-N-[(4,4-difluoro-1-hydroxycyclohexyl)(3-fluorophenyl)methyl]-4-(trifluoromethyl)pyridine-2-carboxamide] | 240
O=C(NC(c1cccc(-n2ccnn2)c1)C1(O)CCCC1)c1nccc(C(F)(F)F)c1Cl (centres unmarked) [Compound 78, 3-chloro-N-{(1-hydroxycyclopentyl)[3-(1H-1,2,3-triazol-1-yl)phenyl]methyl}-4-(trifluoromethyl)pyridine-2-carboxamide] | 450
O=C(NC(c1cccc(-n2nccn2)c1)C1(O)CCCC1)c1nccc(C(F)(F)F)c1Cl (centres unmarked) [Compound 79, 3-chloro-N-{(1-hydroxycyclopentyl)[3-(2H-1,2,3-triazol-2-yl)phenyl]methyl}-4-(trifluoromethyl)pyridine-2-carboxamide] | 310
O=C(NC(c1cccc(-n2cccn2)c1)C1(O)CCCC1)c1nccc(C(F)(F)F)c1Cl (centres unmarked) [Compound 80, 3-chloro-N-{(1-hydroxycyclopentyl)[3-(1H-pyrazol-1-yl)phenyl]methyl}-4-(trifluoromethyl)pyridine-2-carboxamide] | 160
O=C(NC(c1cccc(C(F)(F)F)c1)C1(O)CCCC1)c1nccc(C(F)(F)F)c1Cl (centres unmarked) [Compound 81, 3-chloro-N-{(1-hydroxycyclopentyl)[3-(trifluoromethyl)phenyl]methyl}-4-(trifluoromethyl)pyridine-2-carboxamide] | 960
O=C(NC(c1cccc(OC(F)(F)F)c1)C1(O)CCCC1)c1nccc(C(F)(F)F)c1Cl (centres unmarked) [Compound 84, 3-chloro-N-{(1-hydroxycyclopentyl)[3-(trifluoromethoxy)phenyl]methyl}-4-(trifluoromethyl)pyridine-2-carboxamide] | 2600
